Key:
GPR40 [1] = target: T1, GPR40 (Homo sapiens, UniProt O14842); experiment: Cell-based aequorin assay (CHO cells stably transfected with GPR40 and aequorin); parameters: expressed in transfected cells; conditions: activation of human GPR40, CHO cells, 0.01% HSA
Protocol: Briefly, the Aequorin assays were performed on doubly stable CHO cells expressing GPR40 and Aequorin DNA. […] The luminescence was recorded over a period of 20 seconds with a Microlumat luminometer (Berthold).
Cell-based aequorin assays were employed to characterize the modulatory activity of compounds on the GPR40 signaling pathway. In an exemplary assay, CHO cells were stably transfected with both GPR40 and Aequorin (Euroscreen). Cells were detached from the tissue culture dish with 2 mL of trypsin (0.25% (w/v)). Trypsinization was halted with 28 mL of Hanks Buffered Salt Solution containing 20 mM Hepes (H/HBSS) and 0.01% fatty acid-free human serum albumin (HSA). Coelantrazine is added to 1 ug/mL, and the cells were incubated for 2 hours at room temperature. Compounds were dissolved in DMSO for preparation of 10 mM stock solutions. Compounds were diluted in H/HBSS containing 0.01% HSA. Serial dilutions of the test compounds were prepared to determine dose response.
Aequorin luminescence measurements were made using an EG&G Berthold 96-well luminometer, and the response was measured over a 20 second interval after cells and compounds were mixed. The maximum relative light units was plotted to determine dose response. The EC50 (effective concentration to reach 50% maximal response) was determined from the dose response plot.

GPR40 [2] = target: T1, GPR40; experiment: Inositol phosphate accumulation assay (A9 cell line stably transfected with GPR40); format: cell-based; parameters: expressed in transfected cells; conditions: human GPR40, A9_GPR40 cells, 1 hour at 37° C.; read-out: IP3 EC50 (inositol phosphate assay data)
Protocol: An A9 cell line stably transfected with GPR40 (A9_GPR40) was used in IP accumulation assays. A9_GPR40 cells were plated in 96-well plates containing 20,000 cells/well in DMEM containing 10% FBS. After the cells attached to the well surface, the media was replaced with inositol free DMEM containing 10% dialyzed FBS and 1 μCi, mL ^3H-inositol and incubated for 16 hours. Compounds were diluted in HBSS/10 mM LiCl containing a desired amount of HSA and added directly to cells. Following 1 hour incubation at 37° C., the media was replaced with 100 μl of 20 mM formic acid to quench the reaction. 50 μL of the extract was then added to 100 μL of SPA beads, incubated overnight, and measured on a TopCount the following day.

T1 sequence (O14842 whole entry): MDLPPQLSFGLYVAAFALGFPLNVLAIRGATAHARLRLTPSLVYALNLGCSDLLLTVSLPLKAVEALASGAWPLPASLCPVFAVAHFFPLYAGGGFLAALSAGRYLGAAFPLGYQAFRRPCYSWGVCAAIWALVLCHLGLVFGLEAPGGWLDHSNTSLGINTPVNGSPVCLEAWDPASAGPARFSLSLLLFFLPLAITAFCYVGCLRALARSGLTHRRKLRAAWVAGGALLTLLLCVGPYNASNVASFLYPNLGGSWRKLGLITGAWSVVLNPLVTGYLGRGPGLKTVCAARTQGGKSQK

Structure (SMILES)	EC50 (GPR40 [1]) [nM]	EC50 (GPR40 [2]) [nM]
COc1ccc(F)c(-c2ccc(COc3ccc4c(c3)[C@@H](CC(=O)O)CCC4)cc2C(C)(C)C)c1 (single isomer, unassigned) [Example 6, (R)-2-(7-(3-t-Butyl-4-(2-fluoro-5-methoxyphenyl)benzyloxy)1,2,3,4-tetrahydronaphthalen-1-yl)acetic acid or (S)-2-(7-(3-t-butyl-4-(2-fluoro-5-methoxyphenyl)benzyloxy)1,2,3,4-tetrahydronaphthalen-1-yl)acetic acid]	100 to 1000	100 to 1000
COc1ccc(F)c(-c2ccc(COc3ccc4c(c3)[C@@H](C(C)C(=O)O)CC4)cc2C(C)(C)C)c1 (single isomer, unassigned) [Example 7, (S)-2-(6-(3-t-Butyl-4-(2-fluoro-5-methoxyphenyl)benzyloxy)-2,3-dihydro-1H-inden-1-yl)propanoic acid or (R)-2-(6-(3-t-butyl-4-(2-fluoro-5-methoxyphenyl)benzyloxy)-2,3-dihydro-1H-inden-1-yl)propanoic acid]	100 to 1000	100 to 1000
CCCCOc1cc(COc2ccc3c(c2)[C@@H](CC(=O)O)CC3)ccc1-c1cc(OC)ccc1F (single isomer, unassigned) [Example 17, ((1R)-6-(((2-(butyloxy)-2′-fluoro-5′-(methyloxy)-1,1′-biphenyl-4-yl)methyl)oxy)-2,3-dihydro-1H-inden-1-yl)acetic acid or ((1S)-6-(((2-(butyloxy)-2′-fluoro-5′-(methyloxy)-1,1′-biphenyl-4-yl)methyl)oxy)-2,3-dihydro-1H-inden-1-yl)acetic acid]	100 to 1000	1000 to 10000
COc1ccc(F)c(-c2ccc(COc3ccc4c(c3)[C@@H](CC(=O)O)CC4)cc2[C@@H](OC)C(C)(C)C)c1 (single isomer, unassigned) [Example 24]	100 to 1000	10 to 100
COc1ccc(F)c(-c2ccc(COc3ccc4c(c3)C[C@H]4CC(=O)O)cc2C(C)(C)C)c1 (single isomer, unassigned) [Example 30, ((7S)-3-((2′-Fluoro-5′-methoxy-2-(2-methyl-2-propanyl)-4-biphenylyl)methoxy)bicycle[4.2.0]octa-1,3,5-trien-7-yl)acetic acid or ((7R)-3-((2′-fluoro-5′-methoxy-2-(2-methyl-2-propanyl)-4-biphenylyl)methoxy)bicycle[4.2.0]octa-1,3,5-trien-7-yl)acetic acid]	1000 to 10000	–
COc1ccc(F)c(-c2ccc(COc3ccc4c(c3)CC[C@@H]4CC(=O)O)cc2C(C)(C)C)c1 (single isomer, unassigned) [Example 31, ((1S)-5-((2′-Fluoro-5′-methoxy-2-(2-methyl-2-propanyl)-4-biphenylyl)methoxy)-2,3-dihydro-1H-inden-1-yl)acetic acid or ((1R)-5-((2′-fluoro-5′-methoxy-2-(2-methyl-2-propanyl)-4-biphenylyl)methoxy)-2,3-dihydro-1H-inden-1-yl)acetic acid]	1000 to 10000	–
COc1ccc(F)c(-c2ccc(COc3ccc4c(c3)CC[C@H]4CC(=O)O)cc2C(C)(C)C)c1 (single isomer, unassigned) [Example 32, ((1S)-5-((2′-Fluoro-5′-methoxy-2-(2-methyl-2-propanyl)-4-biphenylyl)methoxy)-2,3-dihydro-1H-inden-1-yl)acetic acid or ((1R)-5-((2′-fluoro-5′-methoxy-2-(2-methyl-2-propanyl)-4-biphenylyl)methoxy)-2,3-dihydro-1H-inden-1-yl)acetic acid]	1000 to 10000	–
COc1cc(-c2ccc(COc3ccc4c(c3)[C@H](CC(=O)O)CCC4)cc2[C@H]2CCCC2(C)C)c(F)cn1 (single isomer, unassigned) [Example 47]	1000 to 10000	–
COc1cc(-c2ccc(COc3ccc4c(c3)[C@](C)(CC(=O)O)CCC4)cc2[C@H]2CCCC2(C)C)c(F)cn1 (single isomer, unassigned) [Example 49]	100 to 1000	–
COc1ccc(F)c(-c2ccc(COc3ccc4c(c3)[C@H]([C@@H](C)C(=O)O)CC4)cc2C(C)(C)C)c1 [Example 13]	100 to 1000	–
COc1cc(-c2ccc(COc3ccc4c(c3F)C(C)(CC(=O)O)CC4)cc2C(OC)C(C)(C)C)c(F)cn1 [Example 41, {(S)-7-Fluoro-6-[4-(5-fluoro-2-methoxy-pyridin-4-yl)-3-((S)-1-methoxy-2,2-dimethyl-propyl)-benzyloxy]-1-methyl-indan-1-yl}-acetic acid or stereoisomer thereof]	1000 to 10000	–

Second part, the compound after the results:

EC50 (GPR40 [1]) [nM]	EC50 (GPR40 [2]) [nM]	Structure (SMILES)
100 to 1000	10 to 100	COc1ccc(F)c(-c2ccc(COc3ccc4c(c3)[C@](C)(CC(=O)O)CC4)cc2[C@H]2CCCC2(C)C)c1 (single isomer, unassigned) [Example 18, {(S)-6-[2-((S)-2,2-Dimethyl-cyclopentyl)-2′-fluoro-5′-methoxy-biphenyl-4-ylmethoxy]-1-methyl-indan-1-yl}-acetic acid or diastereomer thereof]
100 to 1000	< 10	COc1ccc(F)c(-c2ccc(COc3ccc4c(c3)[C@@](C)(CC(=O)O)CC4)cc2[C@@H]2CCCC2(C)C)c1 (single isomer, unassigned) [Example 19, {(R)-6-[2-((S)-2,2-Dimethyl-cyclopentyl)-2′-fluoro-5′-methoxy-biphenyl-4-ylmethoxy]-1-methyl-indan-1-yl}-acetic acid or diastereomer thereof]
100 to 1000	< 10	COc1cc(-c2ccc(COc3ccc4c(c3)[C@@](C)(CC(=O)O)CC4)cc2[C@@H]2CCCC2(C)C)c(F)cn1 (single isomer, unassigned) [Example 20, {(R)-6-[3-((S)-2,2-Dimethyl-cyclopentyl)-4-(5-fluoro-2-methoxy-pyridin-4-yl)-benzyloxy]-1-methyl-indan-1-yl}-acetic acid or diastereomer thereof]
100 to 1000	10 to 100	COc1ccc(F)c(-c2ccc(COc3ccc4c(c3)[C@@H](C(C)(C)C(=O)O)CC4)cc2[C@H]2CCCC2(C)C)c1 (single isomer, unassigned) [Example 21]
100 to 1000	10 to 100	COc1ccc(F)c(-c2ccc(COc3ccc4c(c3)[C@@H](CC(=O)O)CC4)cc2[C@H]2CCCC2(C)C)c1 (single isomer, unassigned) [Example 22]
100 to 1000	10 to 100	COc1cc(-c2ccc(COc3ccc4c(c3)[C@@H](CC(=O)O)CC4)cc2[C@H]2CCCC2(C)C)c(F)cn1 (single isomer, unassigned) [Example 23]
10 to 100	< 10	COc1ccc(F)c(-c2cc(F)c(COc3ccc4c(c3)[C@@](C)(CC(=O)O)CC4)cc2[C@H]2CCCC2(C)C)c1 (single isomer, unassigned) [Example 33, ((1R)-6-((2-((1S)-2,2-Dimethylcyclopentyl)-2′,5-difluoro-5′-methoxy-4-biphenylyl)methoxy)-1-methyl-2,3-dihydro-1H-inden-1-yl)acetic acid or ((1R)-6-((2-((1R)-2,2-dimethylcyclopentyl)-2′,5-difluoro-5′-methoxy-4-biphenylyl)methoxy)-1-methyl-2,3-dihydro-1H-inden-1-yl)acetic acid]
100 to 1000	< 10	COc1cc(-c2cc(F)c(COc3ccc4c(c3)[C@@](C)(CC(=O)O)CC4)cc2[C@H]2CCCC2(C)C)c(F)cn1 (single isomer, unassigned) [Example 34, ((1R)-6-((5-((1S)-2,2-Dimethylcyclopentyl)-2-fluoro-4-(5-fluoro-2-methoxy-4-pyridinyl)benzyl)oxy)-1-methyl-2,3-dihydro-1H-inden-1-yl)acetic acid or ((1R)-6-((5-((1R)-2,2-dimethylcyclopentyl)-2-fluoro-4-(5-fluoro-2-methoxy-4-pyridinyl)benzyl)oxy)-1-methyl-2,3-dihydro-1H-inden-1-yl)acetic acid]
100 to 1000	< 10	COc1ccc(F)c(-c2c(F)cc(COc3ccc4c(c3)[C@@](C)(CC(=O)O)CC4)cc2[C@H]2CCCC2(C)C)c1 (single isomer, unassigned) [Example 35, ((1R)-6-((2-((1S)-2,2-Dimethylcyclopentyl)-2′,6-difluoro-5′-methoxy-4-biphenylyl)methoxy)-1-methyl-2,3-dihydro-1H-inden-1-yl)acetic acid or ((1R)-6-((2-((1R)-2,2-dimethylcyclopentyl)-2′,6-difluoro-5′-methoxy-4-biphenylyl)methoxy)-1-methyl-2,3-dihydro-1H-inden-1-yl)acetic acid]
